# Results reported in ChEMBL document CHEMBL1151757, “Synthesis, radiosynthesis, and biological evaluation of fluorine-18-labeled 2beta-carbo(fluoroalkoxy)-3beta-(3'-((Z)-2-haloethenyl)phenyl)nortropanes: candidate radioligands for in vivo imaging of the serotonin transporter with positron emission tomography” (J Med Chem, 2008).
# Tests used:
# Thalamus [1] = assay: Drug uptake in anesthetized cynomolgus monkey brain thalamus after 185 mins postinjection; format: ADME, organism-based, Macaca fascicularis; conditions: in vivo
# [2] = Ratio of drug uptake in caudate to cerebellum in anesthetized cynomolgus monkey after 9.5 mins postinjection; format: ADME, organism-based, Macaca fascicularis; conditions: in vivo
# [3] = Ratio of drug uptake in caudate to cerebellum in anesthetized cynomolgus monkey after 18.5 mins postinjection; format: ADME, organism-based, Macaca fascicularis; conditions: in vivo
# Medulla [4] = assay: Drug uptake in anesthetized cynomolgus monkey brain medulla after 18.5 mins postinjection; format: ADME, organism-based, Macaca fascicularis; conditions: in vivo
# Medulla [5] = assay: Drug uptake in anesthetized cynomolgus monkey brain medulla after 65 mins postinjection; format: ADME, organism-based, Macaca fascicularis; conditions: in vivo
# Medulla [6] = assay: Drug uptake in anesthetized cynomolgus monkey brain medulla after 175 mins postinjection; format: ADME, organism-based, Macaca fascicularis; conditions: in vivo
# [7] = Ratio of drug uptake in putamen to cerebellum in anesthetized cynomolgus monkey after 155 mins postinjection; format: ADME, organism-based, Macaca fascicularis; conditions: in vivo
# [8] = Drug uptake in anesthetized cynomolgus monkey brain cerebellum after 1.5 mins postinjection; format: ADME, organism-based, Macaca fascicularis; conditions: in vivo, 0.025 h
# [9] = Drug uptake in anesthetized cynomolgus monkey brain cerebellum after 27.5 mins postinjection; format: ADME, organism-based, Macaca fascicularis; conditions: in vivo
# [10] = Drug uptake in anesthetized cynomolgus monkey brain cerebellum after 95 mins postinjection; format: ADME, organism-based, Macaca fascicularis; conditions: in vivo
# [11] = Drug uptake in anesthetized cynomolgus monkey brain cerebellum after 165 mins postinjection; format: ADME, organism-based, Macaca fascicularis; conditions: in vivo, 2.75 h
# [12] = Drug uptake in anesthetized cynomolgus monkey brain cerebellum after 225 mins postinjection; format: ADME, organism-based, Macaca fascicularis; conditions: in vivo, 3.75 h
# [13] = Ratio of drug uptake in putamen to cerebellum in anesthetized cynomolgus monkey after 215 mins postinjection; format: ADME, organism-based, Macaca fascicularis; conditions: in vivo
# [14] = Ratio of drug uptake in thalamus to cerebellum in anesthetized cynomolgus monkey after 95 mins postinjection; format: ADME, organism-based, Macaca fascicularis; conditions: in vivo
# [15] = Ratio of drug uptake in thalamus to cerebellum in anesthetized cynomolgus monkey after 195 mins postinjection; format: ADME, organism-based, Macaca fascicularis; conditions: in vivo, 3.25 h
# Caudate [16] = assay: Drug uptake in anesthetized cynomolgus monkey brain caudate after 2.5 mins postinjection; format: ADME, organism-based, Macaca fascicularis, Caudate nucleus; conditions: in vivo
# Caudate [17] = assay: Drug uptake in anesthetized cynomolgus monkey brain caudate after 3.5 mins postinjection; format: ADME, organism-based, Macaca fascicularis, Caudate nucleus; conditions: in vivo
# Caudate [18] = assay: Drug uptake in anesthetized cynomolgus monkey brain caudate after 15.5 mins postinjection; format: ADME, organism-based, Macaca fascicularis, Caudate nucleus; conditions: in vivo
# Caudate [19] = assay: Drug uptake in anesthetized cynomolgus monkey brain caudate after 35 mins postinjection; format: ADME, organism-based, Macaca fascicularis, Caudate nucleus; conditions: in vivo
# Caudate [20] = assay: Drug uptake in anesthetized cynomolgus monkey brain caudate after 165 mins postinjection; format: ADME, organism-based, Macaca fascicularis, Caudate nucleus; conditions: in vivo, 2.75 h
# Caudate [21] = assay: Drug uptake in anesthetized cynomolgus monkey brain caudate after 175 mins postinjection; format: ADME, organism-based, Macaca fascicularis, Caudate nucleus; conditions: in vivo
# Putamen [22] = assay: Drug uptake in anesthetized cynomolgus monkey brain putamen after 2.5 mins postinjection; format: ADME, organism-based, Macaca fascicularis; conditions: in vivo
# Putamen [23] = assay: Drug uptake in anesthetized cynomolgus monkey brain putamen after 3.5 mins postinjection; format: ADME, organism-based, Macaca fascicularis; conditions: in vivo
# Thalamus [24] = assay: Drug uptake in anesthetized cynomolgus monkey brain thalamus after 12.5 mins postinjection; format: ADME, organism-based, Macaca fascicularis; design: unit not given here; conditions: in vivo
# Putamen [25] = assay: Drug uptake in anesthetized cynomolgus monkey brain putamen after 75 mins postinjection; format: ADME, organism-based, Macaca fascicularis; design: unit not given here; conditions: in vivo, 1.25 h
# Putamen [26] = assay: Drug uptake in anesthetized cynomolgus monkey brain putamen after 85 mins postinjection; format: ADME, organism-based, Macaca fascicularis; design: unit not given here; conditions: in vivo
# Thalamus [27] = assay: Drug uptake in anesthetized cynomolgus monkey brain thalamus after 215 mins postinjection; format: ADME, organism-based, Macaca fascicularis; design: unit not given here; conditions: in vivo
# Thalamus [28] = assay: Drug uptake in anesthetized cynomolgus monkey brain thalamus after 235 mins postinjection; format: ADME, organism-based, Macaca fascicularis; design: unit not given here; conditions: in vivo
# Midbrain [29] = assay: Drug uptake in anesthetized cynomolgus monkey brain midbrain after 85 mins postinjection; format: ADME, organism-based, Macaca fascicularis; design: unit not given here; conditions: in vivo
# Midbrain [30] = assay: Drug uptake in anesthetized cynomolgus monkey brain midbrain after 95 mins postinjection; format: ADME, organism-based, Macaca fascicularis; design: unit not given here; conditions: in vivo
# Midbrain [31] = assay: Drug uptake in anesthetized cynomolgus monkey brain midbrain after 125 mins postinjection; format: ADME, organism-based, Macaca fascicularis; design: unit not given here; conditions: in vivo
# [32] = Ratio of drug uptake in midbrain to cerebellum in anesthetized cynomolgus monkey after 85 mins postinjection; format: ADME, organism-based, Macaca fascicularis; conditions: in vivo
# [33] = Ratio of drug uptake in midbrain to cerebellum in anesthetized cynomolgus monkey after 95 mins postinjection; format: ADME, organism-based, Macaca fascicularis; conditions: in vivo
# [34] = Ratio of drug uptake in midbrain to cerebellum in anesthetized cynomolgus monkey after 145 mins postinjection; format: ADME, organism-based, Macaca fascicularis; conditions: in vivo
smiles,measurement,setting,value
O=C(OCCC[18F])C1C2CCC(CC1c1cccc(/C=C\I)c1)N2 (centres undefined),Drug uptake,Thalamus [1],3.29
same,Ratio,[2],0.6
same,Ratio,[3],0.7
same,Drug uptake,Medulla [4],4.6
same,Drug uptake,Medulla [5],4.96
same,Drug uptake,Medulla [6],4.08
same,Ratio,[7],1.6
same,Drug uptake,[8],0.27
same,Drug uptake,[9],4.8
same,Drug uptake,[10],3.46
same,Drug uptake,[11],2.37
same,Drug uptake,[12],1.87
same,Ratio,[13],1.5
same,Ratio,[14],1.3
same,Ratio,[15],1.5
same,Drug uptake,Caudate [16],0.64
same,Drug uptake,Caudate [17],1.15
same,Drug uptake,Caudate [18],3.34
same,Drug uptake,Caudate [19],3.9
same,Drug uptake,Caudate [20],3.04
same,Drug uptake,Caudate [21],2.83
same,Drug uptake,Putamen [22],0.84
same,Drug uptake,Putamen [23],1.59
same,Drug uptake,Thalamus [24],3.75
same,Drug uptake,Putamen [25],4.92
same,Drug uptake,Putamen [26],4.82
same,Drug uptake,Thalamus [27],3.02
same,Drug uptake,Thalamus [28],2.78
same,Drug uptake,Midbrain [29],4.92
same,Drug uptake,Midbrain [30],4.77
same,Drug uptake,Midbrain [31],4.58
same,Ratio,[32],1.4
same,Ratio,[33],1.4
same,Ratio,[34],1.8
